Measured values published in paper PMC10287566, “Signaling-specific inhibition of the CB1 receptor for cannabis use disorder: phase 1 and phase 2a randomized trials” (Nature Medicine, 2023).
Where two headings read alike, the source gives them in different places.

Tests used:
[1] = GLP mutagenic and genotoxic studies (Ames, chromosome aberration, micronucleus); settings: GLP in vitro and in vivo studies
Procedure: The dose of 816 µg per plate is approximately a concentration of 84 µM.
Human lymphocytes were taken from young (18–35 years old) healthy non-smoker individuals.
This assay was carried out both with and without metabolic activation using Aroclor 1254-induced S9 from rat livers (5%). In the test performed without metabolic activation, two treatment durations were studied: (1) 4 h + 16 h recovery period (short-term treatment) and (2) 20 h without recovery period (continuous treatment). In the test performed with metabolic activation, the treatment period of 4 h + 16 h recovery period with 5% S9 mix was used.
As a control for the genotoxicity induction, a single i.p. injection 24 h before sampling of the reference substance cyclophosphamide (CPA, Baxter, batch 5K044J in NaCl at 0.9% in distilled water, at a dose of 25 mg kg^−1 under a volume of 10 ml kg^−1) was used.

rats = assay: Respiration in unrestrained conscious rats (GLP)
[2] = Plasma and brain pharmacokinetics of oral AEF0117 in mice; type: in vivo; settings: mouse; for Kp: brain/plasma
Procedure: Blood samples were centrifuged within 15 min after collection (~7 min at 1,600g and 4 °C) to obtain plasma. The brain was also harvested, weighed and frozen on dry ice. Plasma and brains were stored below −70 °C until analysis.

dogs = assay: Blood pressure, heart rate, ECG and body temperature in conscious dogs (GLP); type: in vivo
Procedure: The dogs had telemetry transmitters for arterial blood pressure, body temperature and ECG measurements. The study was conducted in two parts.

[3] = Phase 2a study, plasma pharmacokinetics; type: in vivo, human; settings: for Cmax: human, plasma, in the range predicted from animal data
Procedure: THC and its metabolites (11-OH-THC and 11-COOH-THC) were assessed at the same timepoints. […] THC and its metabolites analyses were performed using PD dataset (n = 13 for both doses).
PK parameters for AEF0117 were subject to descriptive statistics separately for each treatment group.

healthy volunteers = type: in vivo, human; settings: SAD
Procedure: Participants were admitted to the research clinic at midday before dosing (day −1). In the SAD study, they remained in-house until day 8 for PK and PD samples and safety assessments. In the MAD study, participants remained in-house until day 14 and returned to the research facility on an outpatient basis to have PK and safety assessments at 216 h and 264 h (day 16 and day 18) after their last dose (day 7). Safety monitoring (physical examinations, vital sign measurements, 12-lead ECGs, clinical safety laboratory tests and AE monitoring) were performed throughout the studies. Psychometrics tests (Bond & Lader VAS, Addiction Research Center Inventory (49-item short form) (ARCI-49) and Profile of Mood States 65 self-report items (POMS-65)) and the Columbia-Suicide Severity Rating Scale (C-SSRS) test were performed at baseline, before dose and at 4 h and 24 h after dose on day 1 and day 7 (MAD study, only) and C-SSRS only at 24 h.

[4] = Plasma and brain pharmacokinetics/toxicokinetics in rats; type: in vivo; settings: for AUC(0-t) / Cmax / half-life / Tmax: rat, plasma; for AUC(0-t) / Cmax / half-life: po
Procedure: Blood samples were obtained from catheterized animals housed in Culex cages with an automated blood sampler—a robotic system designed to facilitate the sampling of whole blood from awake and freely moving rodents. At the last withdrawal timepoint (48 h after dosing), blood aliquots were manually collected from the femoral catheter. This experiment was performed by the CRO Oncodesign.
Blood was withdrawn by cardiac puncture, and the brains were harvested.
In both experiments, blood samples were centrifuged ~7 min at 1,600g (4 °C), and the plasma was collected. The brain was weighed and frozen on dry ice. Plasma and brain were stored below −70 °C until analysis.
For all studies in rats and the 91-d toxicity study in dogs, the timepoints on days 1, 28 and 91 were: before dose and 1, 3, 5, 8 and 24 h after dose. For the 28-d toxicity study in dogs, the timepoints on days 1 and 28 were: before dose and 1, 2, 4, 8, and 24 h after dose. In both species, only mean pre-dose plasma concentrations were calculated on day 14 for the 28-d study and on day 28 for the 91-d study. For the experiments in rats, blood samples for drug analysis were taken from the satellite animals used for the toxicokinetic (TK) analysis (n = 3 per sex per timepoint and per group). For experiments performed in dogs, blood samples were drawn from the cephalic or jugular veins of all animals (n = 3 per sex per group).
TK analysis was performed separately per sex on mean concentrations by a non-compartmental analysis (NCA). The linearity of exposure was evaluated by comparison of the AUC/dose and Cmax/dose ratios. Possible accumulation was evaluated from the ratio of AUC on day 28 and on day 1 for each dose level and each sex. Samples lower than the limit of quantification (LLQ) values (that is, < 8.00 ng ml^−1 in rats and <20.0 ng ml^−1 in dogs) were not included in the calculation of TK parameters.

mice = assay: Anxiety-related behavior, elevated plus maze, repeated treatment; type: in vivo; settings: mice, elevated plus maze, highest dose tested 15 mg/kg
Text: Anxiety-like behaviors were studied in the elevated plus maze (EPM), a rodent model used to evaluate the putative anxiogenic or anxiolytic effects of pharmacological compounds. Depression-related behaviors were studied using the sucrose preference test as a model of anhedonia, one of the cardinal symptoms of depression.
The EPM apparatus comprises four elevated arms arranged in a cross-like shape, with the two opposite arms enclosed by walls and the other two arms open. For all experiments, mice were placed in the center of the EPM and were free to explore the maze for 5 min after receiving the treatment. The time spent and the number of entries into the open and closed arms were measured by an automatic video tracking system (EthoVision XT version 12, Noldus Information Technology). A decrease in the percentage of visits and/or the time spent in open arms is considered an index of increased anxiety.
The EPM assessment was done on day 26, and the sucrose preference test was done on day 28.

[5] = both sexes, CD-1 Swiss, plasma, mice po 0.3 mg/kg single
[6] = both sexes, CD-1 Swiss, plasma, mice po 4 mg/kg single
[7] = both sexes, CD-1 Swiss, plasma, mice po 10 mg/kg single
[8] = Sprague Dawley, 1.6 mg/kg, rats po 1.6 mg/kg single
[9] = both sexes, Sprague Dawley SPF, 20 mg/kg, rats po 20 mg/kg single, 91-day tox study
[10] = both sexes, Sprague Dawley SPF, 36 mg/kg, rats po 36 mg/kg single, 28-day tox study
[11] = both sexes, Sprague Dawley SPF, 65 mg/kg, rats po 65 mg/kg single, 91-day tox study
[12] = both sexes, Sprague Dawley, 2 mg/kg, rats po 2 mg/kg single, 28-day tox study
[13] = both sexes, Sprague Dawley, 2 mg/kg, rats po 2 mg/kg single, 91-day tox study

COc1ccc(CO[C@H]2CC[C@@]3(C)C(=CC[C@H]4[C@@H]5CC[C@H](C(C)=O)[C@@]5(C)CC[C@@H]43)C2)cc1 [AEF0117, 3β-(4-methoxybenzyloxy)pregn-5-en-20-one]
genotoxic or mutagenic activity [1]: did not show any genotoxic or mutagenic activity | adverse effects on respiration (rats): did not show any adverse effects | Tmax ([2]; CD-1 Swiss (mice), Sprague Dawley (rats), brain, oral, mice and rats, read-out: tmax in the brain): 7 h | Kp ([2]; CD-1 Swiss (mice), Sprague Dawley (rats), po, mice and rats, oral, corn oil, read-out: brain/plasma concentration AUC ratio): > 4 | Tmax ([2]; CD-1 Swiss (mice), Sprague Dawley (rats), Beagle (dogs), plasma, po, mice, rats and dogs, single per os, read-out: tmax): ~3 h | Kp ([2]; both sexes, CD-1 Swiss, oral, 0.3 mg/kg, read-out: AUClast brain/plasma ratio): 7.3 | half-life ([2]; both sexes, CD-1 Swiss, plasma, po, mice per os, read-out: half-life): 10.1 to 25.6 h | AUC(0-t) [2, 5]: 252 ng·h/mL | Cmax [2, 5]: 35.5 ng/mL | Tmax ([2]; both sexes, CD-1 Swiss, plasma, mice po 0.3 mg/kg single, read-out: tmax): 2.5 h | half-life ([2]; both sexes, CD-1 Swiss, plasma, mice po 0.3 mg/kg single, read-out: t½ (converted)): 17.8 h | AUC(0-t) [2, 6]: 3730 ng·h/mL | Cmax [2, 6]: 490 ng/mL | Tmax ([2]; both sexes, CD-1 Swiss, plasma, mice po 4 mg/kg single, read-out: tmax): 2.25 h | half-life ([2]; both sexes, CD-1 Swiss, plasma, mice po 4 mg/kg single, read-out: t½ (converted)): 18.3 h | AUC(0-t) [2, 7]: 11300 ng·h/mL | Cmax [2, 7]: 1790 ng/mL | Tmax ([2]; both sexes, CD-1 Swiss, plasma, mice po 10 mg/kg single, read-out: tmax): 2.25 h | half-life ([2]; both sexes, CD-1 Swiss, plasma, mice po 10 mg/kg single, read-out: t½ (converted)): 18.2 h | Tmax ([2]; both sexes, CD-1 Swiss, plasma, mice, oral, corn oil, read-out: Tmax): 3 h | adverse effects on blood pressure, heart rate, ECG and body temperature (dogs): did not show any adverse effects | plasma concentration below LLOQ after washout ([3]; 0.06 mg first, >=14 d later, 3 participants): 0.0002 to 0.0093 ng/mL | mean concentration 24 h after 5th dose higher than 24 h after 1st dose ([3]; Phase 2a, 0.06 and 1 mg): 30-50% | Cmax ([3]; 0.06 mg): ≥ 0.15 ng/mL | Cmax ([3]; 1 mg): ≥ 1.5 ng/mL | ARCI 49 sub-scores (healthy volunteers; 0.2-6 mg vs placebo): No relevant trend | Bond and Lader VAS (alertness, contentedness, calmness) (healthy volunteers; 0.2-6 mg vs placebo): No clinically relevant differences | POMS 65 sub-scales (healthy volunteers; 0.2-6 mg vs placebo): No relevant trend | C-SSRS: number of subjects with suicidal ideation or behavior (healthy volunteers; all doses 0.2-6 mg, Day 1 and Day 2): 0 n (%) | AUC(0-t) [4, 8]: 1060 ng·h/mL | Cmax [4, 8]: 116 ng/mL | half-life ([4]; Sprague Dawley, 1.6 mg/kg, rats po 1.6 mg/kg single, read-out: t½ (converted)): 13.9 h | half-life ([4]; Sprague Dawley, rats per os, read-out: half-life): 7.3 to 15.8 h | Tmax ([4]; Sprague Dawley, rats po 1.6 mg/kg single): 4.1 h | Tmax ([4]; Sprague Dawley, rats, oral, corn oil): 3 h | AUC(0-t) ([4]; both sexes, Sprague Dawley SPF, 9 mg/kg, rats po 9 mg/kg single, 28-day tox study): 6150 ng·h/mL | half-life ([4]; both sexes, Sprague Dawley SPF, 9 mg/kg, rats po 9 mg/kg single, 28-day tox study, read-out: t½ (converted)): 11.7 h | AUC(0-t) [4, 9]: 12700 ng·h/mL | Cmax [4, 9]: 1060 ng/mL | half-life ([4]; both sexes, Sprague Dawley SPF, 20 mg/kg, rats po 20 mg/kg single, 91-day tox study, read-out: t½ (converted)): 7.6 h | AUC(0-t) [4, 10]: 16500 ng·h/mL | Cmax [4, 10]: 2060 ng/mL | half-life ([4]; both sexes, Sprague Dawley SPF, 36 mg/kg, rats po 36 mg/kg single, 28-day tox study, read-out: t½ (converted)): 9.8 h | AUC(0-t) [4, 11]: 18200 ng·h/mL | Cmax [4, 11]: 1660 ng/mL | half-life ([4]; both sexes, Sprague Dawley SPF, 65 mg/kg, rats po 65 mg/kg single, 91-day tox study, read-out: t½ (converted)): 10.4 h | Tmax ([4]; both sexes, Sprague Dawley SPF, rats po 9 mg/kg single, 28-day tox study): 3 h | Tmax ([4]; both sexes, Sprague Dawley SPF, rats po 20 mg/kg single, 91-day tox study): 3 h | Tmax ([4]; both sexes, Sprague Dawley SPF, rats po 36 mg/kg single, 28-day tox study): 3 h | Tmax ([4]; both sexes, Sprague Dawley SPF, rats po 65 mg/kg single, 91-day tox study): 3 h | AUC(0-t) [4, 12]: 1450 ng·h/mL | Cmax [4, 12]: 106 ng/mL | half-life ([4]; both sexes, Sprague Dawley, 2 mg/kg, rats po 2 mg/kg single, 28-day tox study, read-out: t½ (converted)): 8 h | AUC(0-t) [4, 13]: 1210 ng·h/mL | Cmax [4, 13]: 86.3 ng/mL | half-life ([4]; both sexes, Sprague Dawley, 2 mg/kg, rats po 2 mg/kg single, 91-day tox study, read-out: t½ (converted)): 7.7 h | Cmax ([4]; both sexes, Sprague Dawley, 9 mg/kg, rats po 9 mg/kg single, 28-day tox study): 578 ng/mL | Tmax ([4]; both sexes, Sprague Dawley, rats po 2 mg/kg single, 28-day tox study): 4 h | time to steady state ([4]; rats and dogs, repeated administration): approximately 14 days | Overall effect: increase in anxiety-related behaviors (mice): No
